Laboratory results: paper PMC10384010, “Chromatographic Data in Statistical Analysis of BBB Permeability Indices” (Membranes, 2023)
Read-outs that look alike come from different tables or passages of the source.

Assays:
[1] = Normal-phase TLC on silica gel 60 F254 (Rf); type: physicochemical; settings: water:methanol:acetonitrile 60:20:20, ammonium acetate pH 7.4
Procedure: (§1) The purity of the isolated substances was checked by TLC chromatography and densitometric scanning.
(§2) APIs were subjected to chromatographic in column (HPLC) and thin layer (TLC) formats. TLC chromatography was carried out on 20 cm × 20 cm glass plates by Merck, covered with silica gel and the addition of a fluorescent indicator. Merck TLC silica gel 60 F254 was used for the normal phase (NP). In the reverse phase (RP), RP-2 silanized plates were used (Merck TLC Silica gel 60 RP-2 F254, silanized). The mobile phase was buffered with ammonium acetate to pH 7.4 (LACH-NER, ammonium acetate).
(§3) Plates, after developing the chromatograms, were scanned using a densitometer (Desaga CD 60) with an analytical wavelength selected individually for drugs. The values of Rf (molecular descriptors: NP, RP) were determined.

[2] = HPLC on IAM (immobilized artificial membrane) column, retention factor; type: physicochemical; settings: IAM.PC.DD.2 column; for k(IAM) retention factor: 10 mM phosphate buffer pH 7.4:acetonitrile 80:20; for logkIAM: logarithm of retention factor, phosphate buffer pH 7.4:acetonitrile 80:20
Procedure: Chromatographic data also came from an experiment with a HPLC IAM (immobilized artificial membrane) column (Regis Technologies Inc.: IAM.PC.DD.2, 10 µm; 4.6 mm × 10 mm). The column contains a standard membrane consisting of a phospholipid bilayer. Organic solvents (acetonitrile and methanol) and water (J.T. Baker HPLC) were used in HPLC. Sigma phosphate buffered saline tablets were used to prepare the phosphate buffer. The mobile phase was a mixture of 10 mM phosphate buffer at pH 7.4 and acetonitrile in the ratio of 80:20 (v/v) [35]. The mobile phase flow was set at 0.5 mL/min; detection was carried out with a UV–Vis detector. The obtained values of the retention factor (k IAM) were transformed into a logarithmic form and entered into the statistical analysis (descriptor: log k IAM).

[3] = entering the CNS / not entering the CNS; ref Drugbank [36]; cited from earlier work
[4] = Reversed-phase TLC on RP-2 silanized plates (Rf); type: physicochemical; settings: silica gel 60 RP-2 F254 silanized; water:methanol:acetonitrile 60:20:20, ammonium acetate pH 7.4
Procedure: as §1, §2, §3

[5] = cited from earlier work
[6] = plasma protein binding, given as fraction, ref Drugbank

Structure (SMILES)	NP (Rf from NP TLC plate) [1]	k(IAM) retention factor [2]	logkIAM [2]	CNS+/- [3]	RP (Rf from RP-2 TLC plate) [4]	PB (protein binding) [5, 6]	PB (protein binding) ([5]; plasma)
CC(=O)CC(c1ccc([N+](=O)[O-])cc1)c1c(O)c2ccccc2oc1=O (centres unmarked) [acenocumarol]	0.99	0.53	-0.27	1	–	–	–
CC(=O)Oc1ccccc1C(=O)O [acetylsalicylic acid]	0.89	0.03	-1.52	1	0.98	0.995	–
CNCCc1ccccn1 [betahistine]	0.17	0.90	-0.05	1	0.31	–	–
CCCCN1CCCCC1C(=O)Nc1c(C)cccc1C (centres unmarked) [bupivacaine]	0.67	–	–	1	0.74	0.95	–
CCCCCOC(=O)Nc1nc(=O)n([C@@H]2O[C@H](C)[C@@H](O)[C@H]2O)cc1F [capecitabine]	0.92	1.11	0.04	1	0.9	–	–
COc1ccccc1OCCNCC(O)COc1cccc2[nH]c3ccccc3c12 (centres unmarked) [carvedilol]	0.73	–	–	0	–	0.98	–
NS(=O)(=O)c1cc(C2(O)NC(=O)c3ccccc32)ccc1Cl (centres unmarked) [chlortalidone]	0.96	1.32	0.12	1	–	0.75	–
CC[C@H]1OC(=O)[C@H](C)[C@@H](O[C@H]2C[C@@](C)(OC)[C@@H](O)[C@H](C)O2)[C@H](C)[C@@H](O[C@@H]2O[C@H](C)C[C@H](N(C)C)[C@H]2O)[C@](C)(OC)C[C@@H](C)C(=O)[C@H](C)[C@@H](O)[C@]1(C)O [clarithromycin]	0.99	0.10	-1.02	0	0.83	–	–
CCOc1ccc(/C=C2\NCCc3cc(OCC)c(OCC)cc32)cc1OCC [drotaverine]	0.61	31.24	1.49	1	0.55	–	–
CN1CCC[C@@H]1Cc1c[nH]c2ccc(CCS(=O)(=O)c3ccccc3)cc12 [eletriptan]	–	–	–	1	–	–	–
CC[C@@H](CO)NCCN[C@@H](CC)CO [ethambutol]	0.19	–	–	0	0.97	–	–
OCCOCCN1CCN(C(c2ccccc2)c2ccc(Cl)cc2)CC1 (centres unmarked) [hydroxyzine]	0.55	13.82	1.14	1	–	0.93	–
COc1ccc2c(c1)c(CC(=O)O)c(C)n2C(=O)c1ccc(Cl)cc1 [indomethacin]	–	1.08	0.03	1	–	0.97	–
O[C@@H]1CO[C@H]2[C@@H]1OC[C@@H]2O [isosorbide]	0.26	0.21	-0.68	1	0.54	–	–
CCC(C)n1ncn(-c2ccc(N3CCN(c4ccc(OCC5COC(Cn6cncn6)(c6ccc(Cl)cc6Cl)O5)cc4)CC3)cc2)c1=O (centres unmarked) [itraconazole]	0.96	–	–	0	0.86	0.998	–
O=C(c1ccccc1)c1ccc2n1CCC2C(=O)O (centres unmarked) [ketorolac]	0.92	–	–	1	0.96	0.99	–
CC[C@@H](C(N)=O)N1CCCC1=O [levetiracetam]	0.92	–	–	1	0.92	0.1	–
CCC[C@@H]1C[C@@H](C(=O)N[C@@H]([C@H]2O[C@H](SC)[C@H](O)[C@@H](O)[C@H]2O)[C@@H](C)O)N(C)C1 [lincomycin]	0.91	–	–	0	–	0.7	–
O=C1Nc2ccc(Cl)cc2C(c2ccccc2Cl)=NC1O (centres unmarked) [lorazepam]	–	9.04	0.96	1	–	0.87	–
Nc1ccc(O)c(C(=O)O)c1 [mesalazine]	–	–	–	0	0.99	0.43	–
CN(C)C(=N)N=C(N)N [metformin]	0.21	0.34	-0.47	1	0.78	–	–

Structure (SMILES)	NP (Rf from NP TLC plate) [1]	k(IAM) retention factor [2]	logkIAM [2]	CNS+/- [3]	RP (Rf from RP-2 TLC plate) [4]	PB (protein binding) [5, 6]	PB (protein binding) ([5]; plasma)
COCCc1ccc(OCC(O)CNC(C)C)cc1 (centres unmarked) [metoprolol]	0.48	4.32	0.64	0	0.28	–	–
OC(CNCC(O)C1CCc2cc(F)ccc2O1)C1CCc2cc(F)ccc2O1 (centres unmarked) [nebivolol]	0.75	–	–	1	0.4	–	–
CCOC(=O)C1=C(C)NC(C)=C(C(=O)OC)C1c1cccc([N+](=O)[O-])c1 (centres unmarked) [nitrendipine]	0.97	–	–	0	0.86	0.99	–
NC(=O)N1c2ccccc2CC(=O)c2ccccc21 [oxcarbamazepine]	0.91	–	–	1	0.91	0.4	–
C[C@]12C=CC(=O)C=C1CC[C@@H]1[C@@H]2[C@@H](O)C[C@@]2(C)[C@H]1CC[C@]2(O)C(=O)CO [prednizolone]	0.94	2.84	0.45	–	0.87	–	0.9
CC(=O)[C@H]1CC[C@H]2[C@@H]3CCC4=CC(=O)CC[C@]4(C)[C@H]3CC[C@]12C [progesterone]	0.96	34.99	1.54	–	0.71	0.975	–
CNC(=C[N+](=O)[O-])NCCSCc1ccc(CN(C)C)o1 [ranitidine]	0.24	0.67	-0.17	0	0.81	–	–
Cc1cncc(CN2CCC(=C3c4ccc(Cl)cc4CCc4cccnc43)CC2)c1 [rupatadine]	0.42	9.29	0.97	–	0.55	0.985	–
CN[C@H]1CC[C@@H](c2ccc(Cl)c(Cl)c2)c2ccccc21 [sertraline]	0.53	42.89	1.63	–	0.49	0.98	–
CCCc1nn(C)c2c(=O)[nH]c(-c3cc(S(=O)(=O)N4CCN(C)CC4)ccc3OCC)nc12 [sildenafil]	0.69	14.26	1.15	1	0.77	–	–
CC(C)NCC(O)c1ccc(NS(C)(=O)=O)cc1 (centres unmarked) [sotalol]	0.48	1.35	0.13	1	0.85	–	–
CC(=O)S[C@@H]1CC2=CC(=O)CC[C@]2(C)[C@H]2CC[C@@]3(C)[C@@H](CC[C@@]34CCC(=O)O4)[C@H]12 [spironolactone]	0.98	13.38	1.13	–	0.78	0.9	–
CCN1CCCC1CNC(=O)c1cc(S(N)(=O)=O)ccc1OC (centres unmarked) [sulpiride]	0.27	1.66	0.22	–	0.85	0.4	–
CCCc1nc2c(C)cc(-c3nc4ccccc4n3C)cc2n1Cc1ccc(-c2ccccc2C(=O)O)cc1 [telmisartan]	0.9	4.68	0.67	1	0.87	–	–
CC(C)(C)NC[C@H](O)COc1nsnc1N1CCOCC1 [timolol]	0.34	–	–	0	0.97	0.1	–
COc1cc(Cc2cnc(N)nc2N)cc(OC)c1OC [trimethoprim]	0.57	–	–	1	–	–	–
CCN(Cc1ccncc1)C(=O)C(CO)c1ccccc1 (centres unmarked) [tropicamid]	0.85	1.06	0.03	–	0.83	–	0.45
CN(C)CCc1c[nH]c2ccc(C[C@H]3COC(=O)N3)cc12 [zolmitriptane]	0.31	3.30	0.52	–	0.86	–	0.25
CN1CCN(C(=O)OC2c3nccnc3C(=O)N2c2ccc(Cl)cn2)CC1 (centres unmarked) [zopiclone]	0.96	0.91	-0.04	–	0.84	0.45	–
OCCN1CCN(CC/C=C2/c3ccccc3Sc3ccc(Cl)cc32)CC1 [zuclopenthixol]	0.47	48.73	1.69	1	–	0.985	–
